From publication PMC7738205 (Cell Cycle, 2020)
Entries after “also recorded” stand apart in the source; their conditions may differ.

Columns and labels:
[1] = tested on: human bronchial epithelial lining cells; experiment: Cytotoxicity in human bronchial epithelial lining cells; type: cell-based
MA-104 cells = details: visual or neutral red reads
[2] = tested on: SARS-CoV-2 strain USA-WA1/2020; type: cell-based; details: dNHBE cells, conversion of 5.55 µM
[3] = tested on: human epithelial airway cells; details: 1 µM dose; cited from earlier work

Structure (SMILES)	observed cytotoxicity at highest dose given ([1]; 1.66 µM)	observed cytotoxicity at highest dose given ([1]; 30 µM)	cytotoxicity to MA-104 cells (MA-104 cells)	average EC90 expressed [2] [µg/mL]	toxicity in human epithelial airway cells [3]
CCC(CC)COC(=O)[C@H](C)N[P@](=O)(OC[C@H]1O[C@@](C#N)(c2ccc3c(N)ncnn23)[C@H](O)[C@@H]1O)Oc1ccccc1 [Remdesivir, reference compound]	no observed cytotoxicities	–	–	–	–
CC#C[C@]1(O)CCC2C3CCC4=CC(=O)CCC4=C3[C@@H](c3ccc4c(c3)OCO4)C[C@@]21C (some centres unmarked) [PT150]	–	No cytotoxicity; also recorded: no observed cytotoxicities	significant cytotoxicity	3.13	absence of toxicity
